One data set concerns the target T1, soybean lipoxygenase (Glycine max, UniProt P08170).
T1 construct: purchased Sigma Chemical, Co. (St. Louis, MO, USA)
T1 sequence (P08170 1-839): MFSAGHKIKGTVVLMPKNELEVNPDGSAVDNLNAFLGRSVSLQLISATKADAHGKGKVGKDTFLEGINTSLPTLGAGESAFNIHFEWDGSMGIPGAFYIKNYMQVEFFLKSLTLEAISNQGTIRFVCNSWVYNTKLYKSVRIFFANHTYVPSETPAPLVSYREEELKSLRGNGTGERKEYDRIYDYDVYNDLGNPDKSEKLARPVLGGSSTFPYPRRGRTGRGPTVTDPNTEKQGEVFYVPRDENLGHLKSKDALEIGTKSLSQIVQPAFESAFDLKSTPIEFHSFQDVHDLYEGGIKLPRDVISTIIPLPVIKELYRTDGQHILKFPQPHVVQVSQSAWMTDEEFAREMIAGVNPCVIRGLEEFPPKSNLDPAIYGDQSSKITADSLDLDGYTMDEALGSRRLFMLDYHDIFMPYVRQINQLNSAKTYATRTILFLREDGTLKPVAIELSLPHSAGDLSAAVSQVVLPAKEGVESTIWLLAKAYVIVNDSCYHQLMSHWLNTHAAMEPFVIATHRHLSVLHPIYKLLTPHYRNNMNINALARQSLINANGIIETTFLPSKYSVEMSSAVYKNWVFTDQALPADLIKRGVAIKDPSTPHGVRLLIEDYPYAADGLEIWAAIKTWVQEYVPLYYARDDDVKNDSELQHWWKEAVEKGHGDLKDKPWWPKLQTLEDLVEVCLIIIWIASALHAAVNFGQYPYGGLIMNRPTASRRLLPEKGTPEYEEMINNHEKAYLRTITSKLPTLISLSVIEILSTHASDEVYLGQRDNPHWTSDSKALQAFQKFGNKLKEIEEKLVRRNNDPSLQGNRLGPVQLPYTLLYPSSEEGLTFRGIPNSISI
Nature of the data set: Soybean lipoxygenase inhibition study in vitro (UV-based enzyme assay). The data set is classed as biochemical. The settings on record: for IC50: sodium linoleate 0.1 mM, read-out: LOX IC50 (±SD); for inhibition at 10 µM: 0.01 mM, read-out: LOX inhibition % (±SD). As to the method:
The evaluation of the novel acids against soybean lipoxygenase LOX was accomplished by the UV-based enzyme assay of Pontiki and Hadjipavlou-Litina. This assay may be used as a qualitative or semi-quantitative screen for such activity.
In vitro inhibitory LOX assay is accomplished as described previously. The novel derivatives for testing (stock solutions 10 mM in DMSO) were incubated at room temperature with sodium linoleate (0.1 mM) and 0.2 mL of LOX enzyme solution (1/9 × 10^−4w/v in saline). The conversion of sodium linoleate to 13-hydroperoxylinoleic acid was measured at 234 nm and compared with the reference inhibitor. Several concentrations were used for the IC50 determination (Table 2).

The next data set concerns A-549 (lung). Nature of the data set: SRB cytotoxicity assay, A-549. It counts as cell-based. The settings on record: Homo sapiens, A549, 50% growth inhibition, 48 h exposure. The protocol:
Human cancer cell lines used as targets were HT-29 (colon), A-549 (lung), OAW-42 (ovarian), MDA-MB-231 (breast), HeLa (immortal cells from cervical cancer). All cells were obtained from the American Type Culture Collection (ATCC). Cells were routinely grown as monolayer cell cultures in T-75 flasks (Costar) in an atmosphere containing 5% CO2 in air and 100% relative humidity at 37 °C and subcultured twice a week, restricting the total number of cell passages below 20. The culture medium used was Dulbecco’s modified Eagle’s medium (DMEM, Gibco, Grand Island, NY, USA) supplemented with 10% fetal bovine serum (Gibco), 2 mM glutamine (Sigma), 100 μg/mL streptomycin and 100 IU/mL penicillin.
Cell passages were carried out by detaching adherent, logarithmically growing cells after addition of 2–3 mL of a mixture of 0.05% solution of trypsin (Gibco, 1:250) in phosphate-buffered saline (PBS) with 0.02% EDTA and incubation for 3–5 min at 37 °C. For the experiments, cells were plated (100 μL containing 10,000 cells/well) in 96-well flat-bottom microplates microplates (Costar-Corning, Acton, MA 01720, USA) so that untreated cells were in exponential growth phase at the time of cytotoxicity evaluation. Cells were left for 24 h at 37 °C to resume exponential growth and stabilization and afterwards exposed to tested agents for 48 h by the addition of an equal volume (100 μL) of either complete culture medium (control wells), or twice the final drug concentrations diluted in complete culture medium (test wells). Drug cytotoxicity was measured by means of the SRB colorimetric assay estimating the survival fractions (SF) as the percent of control (untreated cells) absorbance. The SRB assay was carried out as previously described and modified by our group. In brief, culture medium was aspirated prior to fixation using a microplate-multiwash device (Tri-Continent Scientific, Inc., Grass Valley, CA, USA) and 50 μL of 10% cold (4 °C) trichloroacetic acid (TCA) were gently added to the wells. Microplates were left for 30 min at 4 °C, washed five times with deionized water and left to dry at room temperature for at least 24 h. Subsequently, 70 μL of 0.4% (w/v) sulforhodamine B (Sigma) in 1% acetic acid solution were added to each well and left at room temperature for 20 min. SRB was removed and the plates were washed five times with 1% acetic acid before air drying. Bound SRB was solubilized with 200 μL of 10 mM unbuffered Tris-base solution and plates were left on a plate shaker for at least 10 min. Absorbance was read in a 96-well plate reader at 492 nm subtracting the background measurement at 620 nm. The test optical density (OD) value was defined as the absorbance of each individual well, minus the blank value (“blank” is the mean optical density of the background control wells, n = 8). Mean values and the coefficient of variation (CV) from six replicate wells were calculated automatically. Results were expressed as the “survival fraction” (SF), as shown below.
For each tested compound a dose-effect curve was produced. Sextuplicate determinations gave a CV (Standard Deviation/mean %) of much less than 10%, resulting in standard error (SE) which was very low in all cases. The data showing inhibition of cellular growth are expressed as the fraction of cells that remains unaffected (fu) (survival fraction, SF), which is derived from the following equation: fu = ODx/ODc where ODx and ODc represent the test and the control optical density, respectively.

Data set [1] in a line: Interaction with the stable radical DPPH. The protocol:
The novel acids were studied for the antioxidant activity by the use of the sTable 2,2-diphenyl-1-picrylhydrazyl radical (DPPH) at concentrations 0.05 and 0.1 mM after 20 and 60 min (Table 2). In the DPPH assay, the dominant chemical reaction involved is the reduction of the DPPH radical by single electron transfer SET from the antioxidant. Phenolic compounds eg. […] The compounds presented reducing abilities which ranged nearly 29% (4ii), small differences were found among the compounds with time and concentration. […] Due to steric reasons the interaction of DPPH with the tested compounds is low.
To a solution of DPPH in absolute ethanol the appropriate volume of the compounds (0.05 and 0.1 mM final concentrations) dissolved in DMSO was added. The absorbance was recorded at 517 nm after 20 and 60 min at room temperature (Table 3).

Some results are limits rather than exact numbers.

Regarding `O=C(O)C(=CC(Br)=Cc1ccccc1)c1ccccc1` [Compound 4i, 4-Bromo-2,5-diphenylpenta-2,4-dienoic acid], the melting point was in the range of 135 to 136 °C. Moreover, the concentration for half-maximal inhibition (IC50) on soybean lipoxygenase turned out to be 74 ± 1.8 µM. Besides, in the data set with A-549 (lung), the IC50 stood at 210 ± 1 µM. In data set [1] (0.05 mM, 20 min), the “RA % (±SD), DPPH” value is recorded as 7 ± 0.03%. Moreover, in data set [1] (0.05 mM, 60 min), the “RA % (±SD), DPPH” value is 4 ± 0.01%. Further, the “RA % (±SD), DPPH” value in data set [1] (0.1 mM, 20 min) was 8 ± 0.03%. In addition, the “RA % (±SD), DPPH” value in data set [1] (0.1 mM, 60 min) came out at 5 ± 0.0%.

Regarding `N#Cc1ccc(C=CC(=O)O)cc1` [Compound 1ii, 3-(4-Cyanophenyl)acrylic acid], the melting point was 258 to 260 °C. For the same molecule, at soybean lipoxygenase, the inhibition at 10 µM was determined as 27%. Moreover, the IC50 with A-549 (lung) is > 240 µM. Besides, in data set [1] (0.05 mM, 20 min), the “RA % (±SD), DPPH” value is recorded as 13 ± 0.3%. Further, the “RA % (±SD), DPPH” value in data set [1] (0.05 mM, 60 min) amounted to 9 ± 0.03%. In addition, the “RA % (±SD), DPPH” value in data set [1] (0.1 mM, 20 min) is listed as 23 ± 0.5%. The “RA % (±SD), DPPH” value in data set [1] (0.1 mM, 60 min) is 21 ± 1.0%.

`O=C(O)C=CC(Br)=Cc1ccccc1` [Compound 4ii, 4-Bromo-5-phenylpenta-2,4-dienoic acid] gave a melting point of 169 to 171 °C. In addition, the IC50 at soybean lipoxygenase is 10 ± 0.05 µM. Also, half-maximal inhibition with A-549 (lung) (IC50) required 173.5 ± 1.4 µM. Further, in data set [1] (0.05 mM, 20 min), the “RA % (±SD), DPPH” value amounted to 17 ± 0.02%. In addition, in data set [1] (0.05 mM, 60 min), the “RA % (±SD), DPPH” value worked out at 13 ± 0.05%. Also, the “RA % (±SD), DPPH” value in data set [1] (0.1 mM, 20 min) came out at 30 ± 0.9%. In data set [1] (0.1 mM, 60 min), the “RA % (±SD), DPPH” value turned out to be 29 ± 0.6%.

`N#Cc1ccc(C=C(C(=O)O)c2ccccc2)cc1` [Compound 1i, 3-(4-Cyanophenyl)-2-phenylacrylic acid] came in with a melting point of 155 to 157 °C. For the same molecule, at soybean lipoxygenase, the half-inhibitory concentration (IC50) stood at 60 ± 0.4 µM. Besides, the IC50 in the data set on A-549 (lung) is > 240 µM. Further, in data set [1] (0.05 mM, 20 min), the “RA % (±SD), DPPH” value is recorded as 12 ± 0.3%. Moreover, the “RA % (±SD), DPPH” value in data set [1] (0.05 mM, 60 min) is on record as 14 ± 0.1%. The “RA % (±SD), DPPH” value in data set [1] (0.1 mM, 20 min) is 28 ± 0.6%. Further, in data set [1] (0.1 mM, 60 min), the “RA % (±SD), DPPH” value is 20 ± 0.8%.

In the case of `O=C(O)C=CC=Cc1ccccc1` [Compound 3ii, 5-Phenylpenta-2,4-dienoic acid], at soybean lipoxygenase, the inhibition at 10 µM was 24%. For the same molecule, the IC50 with A-549 (lung) was > 240 µM. Further, the “RA % (±SD), DPPH” value came out at 11 ± 0.06% in data set [1] (0.05 mM, 20 min); 7 ± 0.0% in data set [1] (0.05 mM, 60 min); 20 ± 0.2% in data set [1] (0.1 mM, 20 min); 16 ± 0.05% in data set [1] (0.1 mM, 60 min).

`O=C(O)C(=CC=Cc1ccc([N+](=O)[O-])cc1)c1ccccc1` [Compound 2i, 5-(4-Nitrophenyl)-2-phenylpenta-2,4-dienoic acid] came in with a melting point of 163 to 165 °C. In addition, the IC50 on soybean lipoxygenase worked out at 66.5 ± 1.2 µM. 134 ± 1.6 µM corresponded to half-maximal inhibition in the data set on A-549 (lung) (IC50). Moreover, the “RA % (±SD), DPPH” value in data set [1] (0.05 mM, 20 min) was found to be 10 ± 0.04%. The “RA % (±SD), DPPH” value in data set [1] (0.05 mM, 60 min) was 11 ± 0.02%. Moreover, the “RA % (±SD), DPPH” value in data set [1] (0.1 mM, 20 min) is listed as 23 ± 0.7%. Moreover, the “RA % (±SD), DPPH” value in data set [1] (0.1 mM, 60 min) was found to be 23 ± 0.9%.

`O=C(O)C(=CC=Cc1ccccc1)c1ccccc1` [Compound 3i, 2,5-Diphenylpenta-2,4-dienoic acid] had a melting point of 145 to 147 °C. Further, the IC50 at soybean lipoxygenase was determined as 74 ± 1.7 µM. The IC50 with A-549 (lung) is > 240 µM. In data set [1] (0.05 mM, 20 min), the “RA % (±SD), DPPH” value worked out at 4 ± 0.02%. Besides, the “RA % (±SD), DPPH” value in data set [1] (0.05 mM, 60 min) came out at 3 ± 0.0%. The “RA % (±SD), DPPH” value in data set [1] (0.1 mM, 20 min) was 5 ± 0.0%. Also, the “RA % (±SD), DPPH” value in data set [1] (0.1 mM, 60 min) is 6 ± 0.04%.

For the molecule `O=C(O)C=CC=Cc1ccc([N+](=O)[O-])cc1` [Compound 2ii, 5-(4-Nitrophenyl)penta-2,4-dienoic acid], the melting point lay within 170 to 172 °C. Also, the inhibition at 10 µM at soybean lipoxygenase was determined as 31%. Moreover, the IC50 with A-549 (lung) is > 240 µM. Further, the “RA % (±SD), DPPH” value in data set [1] (0.05 mM, 60 min) is given as 13 ± 0.04%. Further, in data set [1] (0.1 mM, 20 min), the “RA % (±SD), DPPH” value is 29 ± 1.0%. Further, the “RA % (±SD), DPPH” value in data set [1] (0.1 mM, 60 min) was 24 ± 0.6%.

The record behind these values is publication PMC6270778, “Novel Cinnamic Acid Derivatives as Antioxidant and Anticancer Agents: Design, Synthesis and Modeling Studies” (Molecules, 2014).
